The subject of one experiment is CTCF. Briefly: ChIP-Seq for CTCF with and without auxin. Type of experiment: cell-based, human. Here is the method:
ChIP-Seq for H3K27Ac, H3K4me1, H3K4me3, H3K36me3, H3K27me3, H3K9me3, H4K16Ac, H4K20me3, H3K79me2, and H2.AZ was performed using a native ChIP-Seq protocol. Chromatin from untreated HCT-116 RAD21-mAC cells or cells treated for 6 hours with 500 uM IAA was digested with Mnase (Sigma) in digestion buffer (50 mM Tris-HCl, pH7.6, 1 mM CaCl2), 0.2% Triton X-100, butyrate 5 mM) for 5′ at 37° C. and dialyzed against RIPA buffer for 2 hrs at 4° C. Five microgram of respective antibody was incubated with 40 μl of Dynabeads Protein A (or G) for 40 min at room temperature. Antibody-bound beads were added to 500 μl of sonicated or Mnase-digested chromatin, incubated at 4° C. overnight, and washed twice with RIPA buffer, twice with RIPA buffer containing 0.3 M NaCl, twice with LiCl buffer (0.25 M LiCl, 0.5% Igepal-630, 0.5% sodium deoxycholate), once with TE (pH 8.0) plus 0.2% Triton X-100, and once with TE (pH 8.0). ChIP DNA was purified by phenol-chloroform extraction followed by ethanol precipitation. Libraries were prepped for Illumina sequencing and 50 bp single-end reads were sequenced on a HiSeq2000 or 2500 (Illumina). Applicants also performed ChIP-Seq for RAD21 and CTCF following the same protocol as above, except that cells were fixed with 1% formaldehyde for 10 minutes at 37° C. and fixation was quenched by the addition of glycine to a final concentration of 125 mM for 10 minutes. The fixed cells were sonicated using a Branson sonifier at amplitude 35%, 12 cycles of 20 seconds of sonication and 30 seconds of pause. Antibody was added to the sonicated chromatin as above and the samples were further processed as above. […]
All ChIP-Seq data was aligned to hg19 with BWA (Li and Durbin, 2010) (Li and Durbin, 2010) (Li and Durbin, 2010), deduplicated using PicardTools, and analyzed with MACS 2.0 (Liu, 2014). […]
Applicants calculated average signal over 5 kb bins across the entire genome and correlated signal between ChIP-Seq experiments before and after auxin treatment for each of CTCF, H3K27me3, H3K9me3, H3K4me1, H3K4me3 and H3K27Ac.

The next experiment deals with HCT-116-CMV-OsTIR1 cells. Kind of experiment: PRO-Seq control for the auxin hormone itself. Format: cell-based, human. The settings on record: no mAID tag on any protein. The protocol: To measure changes in transcription resulting from cohesin loss, Applicants performed precision run-on sequencing (PRO-Seq) (Jonkers and Lis, 2015), a variant of global run-on sequencing (GRO-Seq), using a single biotinylated nucleotide (biotin-11-CTP) as previously described (Engreitz et al., 2016). Applicants made one modifications to the protocol: at the end of each biotin enrichment, Applicants eluted biotinylated RNAs from the streptavidin-coated magnetic beads by heating beads in 25 μl of 20 mM Tris-HCl pH 7.5, 10 mM EDTA, 2% N-lauroylsarcosine at 95° C. for 5 minutes, followed by a magnetic-bead nucleic acid purification with 20 μl of MyONE SILANE beads. During the nuclei preparation step, Applicants processed pairs of RAD21-mAC cells with and without auxin treatment in parallel. In addition, Applicants performed PRO-Seq on HCT-116 CMV-OsTIR1 cells, the parental cell line of RAD21-mAC containing the OsTIR1 gene integrated at the AAVS1 locus and no mAID tags integrated on any protein. By performing PRO-Seq on CMV-OsTIR1 cells with and without auxin treatment, Applicants could control for transcriptional effects of the auxin treatment itself on HCT-116 cells, as well as any consequences of tagging the RAD21 protein. […]

As for `O=C(O)Cc1c[nH]c2ccccc12` [auxin, indole-3-acetic acid], the “CTCF peaks called after auxin treatment also called before auxin treatment” value in the experiment with CTCF was determined as 96%. Also, the “Spearman's r of ChIP-Seq signal before vs after auxin treatment, CTCF” value in the experiment on CTCF (5 kb bins genome-wide) was determined as 0.80. Besides, the “average enrichment at all CTCF binding sites called by ENCODE, treated cells” value in the experiment with CTCF (untreated 10.89) worked out at 8.93. Also, in the experiment with HCT-116-CMV-OsTIR1 cells, the “number of genes detected as significantly different before vs after auxin treatment” value was found to be 105 and the “number of genes significantly different with at least a 1.3-fold change” value was determined as 56.
